Values of other authors in patent publication US9066956B2, “Vaginal ring comprising DHEA or DHEA sulfate and optionally a release-modulating agent of the active principle, useful to increase the ovarian reserve in women and to relieve symptoms associated with menopause” (Universidad de Chile, priority 2011, dated 2015).
Read-outs that look alike come from different tables or passages of the source.

What was measured:
[1] = system: infertile women with diminished ovarian reserve; details: versus national U.S. IVF rates 2004

Molecule | DHEA metabolized back to DHEA-S (by sulfatase hydroxysteroid) | Reduction of spontaneous abortions ([1]; first fertility center (U.S.)) | Reduction of spontaneous abortions ([1]; second fertility center (Canada)) | clinical pregnancies (women; oral DHEA 75 mg daily up to four months before IVF, control group 11%) | rate of spontaneous abortions (women; oral DHEA 75 mg daily, control group 36%) | increase of clinical pregnancy (women; oral DHEA versus control group) | daily production of DHEA-S converted to DHEA (women)
C[C@]12CC[C@H](O)CC1=CC[C@@H]1[C@@H]2CC[C@]2(C)C(=O)CC[C@@H]12 [DHEA, dehydroepiandrosterone] | 13% | 15.0% | 15.2% | 28% | 20% | at least 150% | 
dehydroepiandrosterone sulphate [DHEA-S] |  |  |  |  |  |  | 64%
